The term MIC denotes the lowest concentration that inhibits growth of the organism.

The subject of experiment [1] is Staphylococcus aureus. Description: Antibacterial activity assay (MIC, broth dilution). The class given is cell-based. On the set-up: S. aureus Killing / Bacterial Killing S. aureus: unit not given here. The following applies: for MIC: Staphylococcus aureus, Table 21, read-out: Staphylococcus aureus MIC; for MIC SA USA300: Staphylococcus aureus USA 300 strain, broth microdilution; for S. aureus Killing: anti-bacterial activity (MIC), strain not stated. Background: In broth dilution the organism is exposed to a series of concentrations in liquid medium.

In experiment [2] the test system is Enterococcus faecalis. As to the kind of experiment: Antibacterial activity assay (MIC, broth dilution). In kind it is cell-based. As to conditions: for MIC: Enterococcus faecalis, Table 21, read-out: Escherichia feacalis MIC; for MIC EF 15951: Enterococcus faecalis 15951, broth microdilution.

Structures are written as SMILES. Structures can show the parent of a compound that is named as a salt.

With `CN(CCC#N)c1ccc(/C=C/c2cc(-c3ccc(Br)cc3)cc(-c3ccc(Br)cc3)[o+]2)cc1.F[B-](F)(F)F`, the MIC in experiment [1] and in experiment [2] was over 64 µg/mL each time.

`CN(CCC#N)c1ccc(/C=C/c2cc(-c3ccccc3)cc(-c3ccccc3)[o+]2)cc1.F[B-](F)(F)F`: the MIC in experiment [1] and in experiment [2] was over 64 µg/mL throughout.

Take `Cc1ccc(-c2cc(/C=C/c3ccc(N(C)CCC#N)cc3)[o+]c(-c3ccc(C)cc3)c2)cc1.F[B-](F)(F)F`: the MIC in experiment [1] and in experiment [2] was over 64 µg/mL each time.

For `CN(CCC#N)c1ccc(/C=C/c2cc(-c3ccc(C(C)(C)C)cc3)cc(-c3ccc(C(C)(C)C)cc3)[o+]2)cc1.F[B-](F)(F)F`, the MIC in experiment [1] and in experiment [2] was over 64 µg/mL each time.

As for `CN(C)c1ccc(/C=C/c2cc(-c3ccc(I)cc3)cc(-c3ccc(I)cc3)[o+]2)cc1.F[B-](F)(F)F`, the MIC in experiment [1] and in experiment [2] was over 64 µg/mL throughout.

On to `CN(C)c1ccc(/C=C/c2cc(-c3ccc(F)c(F)c3)cc(-c3ccc(F)c(F)c3)[o+]2)cc1.F[B-](F)(F)F`, for which the MIC in experiment [1] and in experiment [2] was over 64 µg/mL throughout.

For `CN(CCC#N)c1ccc(/C=C/c2cc(-c3ccc(I)cc3)cc(-c3ccc(I)cc3)[o+]2)cc1.F[B-](F)(F)F`, the MIC in experiment [1] and in experiment [2] was over 64 µg/mL each time.

With `CN(CCC#N)c1ccc(/C=C/c2cc(-c3ccc(C(F)(F)F)cc3)cc(-c3ccc(C(F)(F)F)cc3)[o+]2)cc1.F[B-](F)(F)F`, the MIC in experiment [1] and in experiment [2] was over 64 µg/mL throughout.

`CN(CCC#N)c1ccc(/C=C/c2cc(-c3ccc(F)c(F)c3)cc(-c3ccc(F)c(F)c3)[o+]2)cc1.F[B-](F)(F)F`: the MIC in experiment [1] and in experiment [2] was over 64 µg/mL in each case.

On to `CCN(CC)c1ccc(/C=C/c2cc(-c3ccc(F)cc3)cc(-c3ccc(F)cc3)[o+]2)c(O)c1.F[B-](F)(F)F`, for which the results for the MIC in experiment [1] and in experiment [2] were 64 µg/mL and over 64 µg/mL, respectively.

With `CCN(CCC#N)c1ccc(/C=C/c2cc(-c3ccc(Br)cc3)cc(-c3ccc(Br)cc3)[o+]2)c(C)c1.F[B-](F)(F)F`, the minimal inhibitory concentration (MIC) in experiment [1] and in experiment [2] was over 64 µg/mL in each case.

As for `CCN(CCC#N)c1ccc(/C=C/c2cc(-c3ccc(F)cc3)cc(-c3ccc(F)cc3)[o+]2)c(C)c1.F[B-](F)(F)F`, the MIC in experiment [1] and in experiment [2] was over 64 µg/mL each time.

With `CCCN1CCCc2cc(/C=C/c3cc(-c4ccc(Br)cc4)cc(-c4ccc(Br)cc4)[o+]3)ccc21.F[B-](F)(F)F`, the MIC in experiment [1] and in experiment [2] was over 64 µg/mL each time.

In the case of `CCCN1CCCc2cc(/C=C/c3cc(-c4ccc(F)cc4)cc(-c4ccc(F)cc4)[o+]3)ccc21.F[B-](F)(F)F`, the MIC in experiment [1] and in experiment [2] was over 64 µg/mL each time.

Turning to `CN(C)c1ccc(/C=C/c2cc(-c3ccc(F)cc3)cc(-c3ccc(F)cc3)[n+]2C)cc1.[I-]` [Compound 2jc39-1, (E)-2-(4-(dimethylamino)styryl)-4,6-bis(4-fluorophenyl)-1-methylpyridin-1-ium iodide salt], in experiment [1], the MIC SA USA300 was found to be 4 µg/mL. Further, in experiment [2], the MIC EF 15951 was 4 µg/mL.

With `CN(CCC#N)c1ccc(/C=C/c2cc(-c3ccc(F)cc3)cc(-c3ccc(F)cc3)[n+]2C)cc1.[I-]` [Compound 2jc39-2, (E)-2-(4-((2-cyanoethyl)(methyl)amino)styryl)-4,6-bis(4-fluorophenyl)-1-methylpyridin-1-ium iodide salt], the MIC SA USA300 in experiment [1] was 16 µg/mL. In addition, in experiment [2], the MIC EF 15951 amounted to 16 µg/mL.

Regarding `CN(C)c1ccc(/C=C/c2cc(-c3ccc(F)cc3)cc(-c3ccc(Br)cc3)[n+]2C)cc1.[I-]` [Compound 2jc39-3, (E)-2-(4-bromophenyl)-6-(4-(dimethylamino)styryl)-4-(4-fluorophenyl)-1-methylpyridin-1-ium iodide salt], the MIC SA USA300 in experiment [1] stood at 4 µg/mL. The same compound gave an MIC EF 15951 in experiment [2] of 4 µg/mL.

On to `CN(CCC#N)c1ccc(/C=C/c2cc(-c3ccc(F)cc3)cc(-c3ccc(Br)cc3)[n+]2C)cc1.[I-]` [Compound 2jc39-4], for which the MIC SA USA300 in experiment [1] came out at 16 µg/mL. In addition, in experiment [2], the MIC EF 15951 was found to be 16 µg/mL.

As for `CN(CCC#N)c1ccc(/C=C/c2cc(-c3ccc(I)cc3)cc(-c3ccc(F)cc3)[n+]2C)cc1.[I-]` [Compound 3jc07-10, (E)-2-(4-((2-cyanoethyl)(methyl)amino)styryl)-6-(4-fluorophenyl)-4-(4-iodophenyl)-1-methylpyridin-1-ium iodide salt], the MIC SA USA300 in experiment [1] was found to be 32 µg/mL.

As to `CN(C)c1ccc(/C=C/c2cc(-c3ccc(I)cc3)cc(-c3ccc(Br)cc3)[n+]2C)cc1.[I-]` [Compound 3jc07-11, (E)-2-(4-bromophenyl)-6-(4-(dimethylamino)styryl)-4-(4-iodophenyl)-1-methylpyridin-1-ium iodide salt], the MIC SA USA300 in experiment [1] was 4 µg/mL.

In experiment [1], `CN(CCC#N)c1ccc(/C=C/c2cc(-c3ccc(I)cc3)cc(-c3ccc(Br)cc3)[n+]2C)cc1` [Compound 3jc07-12, (E)-2-(4-bromophenyl)-6-(4-((2-cyanoethyl)(methyl)amino)styryl)-4-(4-iodophenyl)-1-methylpyridin-1-ium iodide salt] yielded an MIC SA USA300 of 32 µg/mL.

On to `CN(CCC#N)c1ccc(/C=C/c2cc(-c3ccc(F)cc3)cc(-c3ccc(F)cc3)[o+]2)cc1.F[B-](F)(F)F` [Compound 3jc09-1, (E)-2-(4-((2-cyanoethyl)(methyl)amino)styryl)-4,6-bis(4-fluorophenyl)pyrylium boron tetrafluoride salt], for which the MIC SA USA300 in experiment [1] is over 64 µg/mL.

In experiment [1], `CN(CCC#N)c1ccc(/C=C/c2cc(-c3ccc(Br)cc3)cc(-c3ccc(Br)cc3)[o+]2)cc1` [Compound 3jc09-2, (E)-2,4-bis(4-bromophenyl)-6-(4-((2-cyanoethyl)(methyl)amino)styryl)pyrylium boron tetrafluoride salt] yielded an MIC SA USA300 of over 64 µg/mL.

For the compound `CN(C)c1ccc(/C=C/c2cc(-c3ccc(Br)cc3)cc(-c3ccc(Br)cc3)[o+]2)cc1` [drawing 88, (E)-2,4-bis(4-bromophenyl)-6-(4-(dimethylamino)styryl)pyrylium boron tetrafluoride salt], the “S. aureus Killing” value in experiment [1] is 32.

With `CN1/C(=C/C=C/c2cc(-c3ccccc3)cc(-c3ccccc3)[o+]2)C(C)(C)c2ccccc21` [drawing 116, 2,4-diphenyl~6-((1E,3E)-3-(1,3,3-trimethylindolin-2-ylidene)prop-1-en-1-yl)pyrylium boron tetrafluoride salt], the “S. aureus Killing” value in experiment [1] came to 0.5.

On to `Cc1ccc(-c2cc(/C=C/C=C3/N(C)c4ccccc4C3(C)C)[o+]c(-c3ccc(C)cc3)c2)cc1` [drawing 117, 2,4-di-p-tolyl-6-((1E,3E)-3-(1,3,3-trimethylindolin-2-ylidene)prop-1-en-1-yl)pyrylium boron tetrafluoride salt], for which, in experiment [1], the “S. aureus Killing” value stood at 1.

Take `CCc1ccc(-c2cc(/C=C/c3cc4c5c(c3)CCCN5CCC4)[o+]c(-c3ccc(CC)cc3)c2)cc1` [drawing 120, (E)-2,4-bis(4-ethylphenyl)-6-(2-(1,2,3,5,6,7-hexahydropyrido [3,2,1-ij]quinolin-9-yl)vinyl)pyrylium boron tetrafluoride salt]: in experiment [1], the “S. aureus Killing” value worked out at 1.

Turning to `Cc1ccc(-c2cc(/C=C/c3cc4c5c(c3)CCCN5CCC4)[o+]c(-c3ccc(C)c(C)c3)c2)cc1C` [drawing 122, (E)-2,4-bis(3.4-dimethyiphenyl)-6-(2-(1,2,3,5,6,7-hexahydropyrido [3,2,1-ij]quinolin-9-yl)vinyl)pyrylium boron tetrafluoride salt], the “S. aureus Killing” value in experiment [1] is given as 0.5.

(Values after US10941114B2, “Small molecule lipid II inhibitors” (University Of Maryland, Baltimore, priority 2015, dated 2021).)
